The values below are quoted from earlier work in patent US6517822B1, “Formulations and methods for straightening hair” (priority 1998, dated 2003).

The conditions of data set [1]: molarity of 0.1.

With `CC(=O)O` [acetic acid], the electrical conductivity in data set [1] is 4.67 reciprocal ohms (mho). The “solute ionized at equilibrium” value (0.01 mole in a liter of water at room temperature) is “about 4%”. Moreover, under “0.1 mol, final volume 1 liter”, the acetic acid ionized is 1.3%.

For the compound `CC(N)=O` [Acetamide], in the data set with animal studies, the “tumor finding from oral exposure” value was “liver tumors”.
